Measurements as given in US11357779B2 (G1 Therapeutics, Inc., priority 2018, dated 2022).
Read-outs that look alike come from different tables or passages of the source.

Assay: Noncompartmental pharmacokinetic parameters (Cmax, Tmax, AUC, Racc) in QD and BID cohorts of Form B
Format: in vivo, human
Details: human, plasma, oral
Experimental: Analysis of plasma concentration versus time data for calculation of standard pharmacokinetic (PK) parameters following oral administration was conducted using Phoenix WinNonlin version 6.3 using actual blood sampling times.
The following pharmacokinetic parameters were calculated from the concentration versus time data obtained in Example 1 for each of the above QD (200 mg, 300 mg, 400 mg, 500 mg, or 650 mg dosed) and BID (100 mg, 150 mg, or 200 mg doses) Form B of Compound II dosage cohorts: • Cmax—the observed peak plasma concentration determined from the plasma concentration versus time data obtained on Day 1 and Day 29, as applicable; • Tmax—the time to reach the observed peak plasma concentration from the plasma concentration versus time data obtained on Day 1 and Day 29, as applicable; • AUC—area under the plasma concentration versus time curve during a dosing interval on Day 1 and Day 29, as applicable; and • Racc—accumulation ratio calculated as AUCDay 29/AUCDay 1.

**Q.** For CC(C)N1CCN(c2ccc(Nc3ncc4cc5n(c4n3)C3(CCCCC3)CNC5=O)nc2)CC1 [Compound I, 2′-((5-(4-isopropylpiperazin-1-yl)pyridin-2-yl)amino)-7′,8′-dihydro-6′H-spiro[cyclohexane-1,9′-pyrazino[1′,2′:1,5]pyrrolo[2,3-d]pyrimidin]-6′-one], which AUC(0-t) (100 mg, Cohort 6, 100 mg BID of Form B, Day 1, read-out: AUClast, Mean) is on record?
**A.** 59.7 ng·h/mL

**Q.** What about the AUC(0-t) (100 mg, Cohort 6, 100 mg BID of Form B, Day 1, read-out: AUClast, Median) of the same molecule?
**A.** 53.1 ng·h/mL

**Q.** What about the Cmax (100 mg, Cohort 6, 100 mg BID of Form B, Day 1, read-out: Cmax, Mean) of the same molecule?
**A.** 10.2 ng/mL

**Q.** And the Cmax (100 mg, Cohort 6, 100 mg BID of Form B, Day 1, read-out: Cmax, Median)?
**A.** 8.95 ng/mL

**Q.** And the Tmax (100 mg, Cohort 6, 100 mg BID of Form B, Day 1, read-out: Tmax, Mean)?
**A.** 3.17 h

**Q.** What about the Tmax (100 mg, Cohort 6, 100 mg BID of Form B, Day 1, read-out: Tmax, Median) of the same molecule?
**A.** 3 h

**Q.** And the AUC(0-t) (100 mg, Compound I, 100 mg BID of Form B, Cohort 6, Day 29, read-out: AUClast (Mean))?
**A.** 101 ng·h/mL

**Q.** And the AUC(0-t) (100 mg, Compound I, 100 mg BID of Form B, Cohort 6, Day 29, read-out: AUClast (Median))?
**A.** 88.2 ng·h/mL

**Q.** What about the Cmax (100 mg, Compound I, 100 mg BID of Form B, Cohort 6, Day 29, read-out: Cmax (Mean)) of the same molecule?
**A.** 12.3 ng/mL

**Q.** What about the Cmax (100 mg, Compound I, 100 mg BID of Form B, Cohort 6, Day 29, read-out: Cmax (Median)) of the same molecule?
**A.** 11.8 ng/mL

**Q.** What about the Tmax (100 mg, Compound I, 100 mg BID of Form B, Cohort 6, Day 29, read-out: Tmax (Mean)) of the same molecule?
**A.** 4.4 h

**Q.** What about the Tmax (100 mg, Compound I, 100 mg BID of Form B, Cohort 6, Day 29, read-out: Tmax (Median)) of the same molecule?
**A.** 3 h

**Q.** And the AUC(0-t) (150 mg, Compound I, 150 mg BID of Form B, Cohort 7, Day 1, read-out: AUClast (Mean))?
**A.** 130 ng·h/mL

**Q.** What about the AUC(0-t) (150 mg, Compound I, 150 mg BID of Form B, Cohort 7, Day 1, read-out: AUClast (Median)) of the same molecule?
**A.** 141 ng·h/mL

**Q.** And the Cmax (150 mg, Compound I, 150 mg BID of Form B, Cohort 7, Day 1, read-out: Cmax (Mean))?
**A.** 21.7 ng/mL

**Q.** What about the Cmax (150 mg, Compound I, 150 mg BID of Form B, Cohort 7, Day 1, read-out: Cmax (Median)) of the same molecule?
**A.** 24.6 ng/mL

**Q.** What about the Tmax (150 mg, Compound I, 150 mg BID of Form B, Cohort 7, Day 1, read-out: Tmax (Mean)) of the same molecule?
**A.** 3.67 h

**Q.** What about the Tmax (150 mg, Compound I, 150 mg BID of Form B, Cohort 7, Day 1, read-out: Tmax (Median)) of the same molecule?
**A.** 4 h

**Q.** What about the AUC(0-t) (150 mg, Compound I, 150 mg BID of Form B, Cohort 7, Day 29, read-out: AUClast (Mean)) of the same molecule?
**A.** 455 ng·h/mL

**Q.** And the AUC(0-t) (150 mg, Compound I, 150 mg BID of Form B, Cohort 7, Day 29, read-out: AUClast (Median))?
**A.** 334 ng·h/mL

**Q.** What about the Cmax (150 mg, Compound I, 150 mg BID of Form B, Cohort 7, Day 29, read-out: Cmax (Mean)) of the same molecule?
**A.** 50.2 ng/mL

**Q.** And the Cmax (150 mg, Compound I, 150 mg BID of Form B, Cohort 7, Day 29, read-out: Cmax (Median))?
**A.** 36.9 ng/mL

**Q.** And the Tmax (150 mg, Compound I, 150 mg BID of Form B, Cohort 7, Day 29, read-out: Tmax (Mean))?
**A.** 4 h

**Q.** What about the Tmax (150 mg, Compound I, 150 mg BID of Form B, Cohort 7, Day 29, read-out: Tmax (Median)) of the same molecule?
**A.** 4 h

**Q.** And the AUC(0-t) (200 mg, Cohort 1, 200 mg QD of Form B, Day 1, read-out: AUClast, Mean)?
**A.** 215 ng·h/mL

**Q.** And the AUC(0-t) (200 mg, Cohort 1, 200 mg QD of Form B, Day 1, read-out: AUClast, Median)?
**A.** 232 ng·h/mL

**Q.** And the Cmax (200 mg, Cohort 1, 200 mg QD of Form B, Day 1, read-out: Cmax, Mean)?
**A.** 25.5 ng/mL

**Q.** And the Cmax (200 mg, Cohort 1, 200 mg QD of Form B, Day 1, read-out: Cmax, Median)?
**A.** 27 ng/mL

**Q.** And the Tmax (200 mg, Cohort 1, 200 mg QD of Form B, Day 1, read-out: Tmax, Mean)?
**A.** 4.17 h

**Q.** And the Tmax (200 mg, Cohort 1, 200 mg QD of Form B, Day 1, read-out: Tmax, Median)?
**A.** 4 h

**Q.** What about the AUC(0-t) (200 mg, Compound I, 200 mg BID of Form B, Cohort 7, Day 1, read-out: AUClast (Mean)) of the same molecule?
**A.** 118 ng·h/mL

**Q.** And the AUC(0-t) (200 mg, Compound I, 200 mg BID of Form B, Cohort 7, Day 1, read-out: AUClast (Median))?
**A.** 125 ng·h/mL

**Q.** And the Cmax (200 mg, Compound I, 200 mg BID of Form B, Cohort 7, Day 1, read-out: Cmax (Mean))?
**A.** 17.3 ng/mL

**Q.** What about the Cmax (200 mg, Compound I, 200 mg BID of Form B, Cohort 7, Day 1, read-out: Cmax (Median)) of the same molecule?
**A.** 17.6 ng/mL

**Q.** What about the Tmax (200 mg, Compound I, 200 mg BID of Form B, Cohort 7, Day 1, read-out: Tmax (Mean)) of the same molecule?
**A.** 5 h

**Q.** And the Tmax (200 mg, Compound I, 200 mg BID of Form B, Cohort 7, Day 1, read-out: Tmax (Median))?
**A.** 5 h

**Q.** And the AUC(0-t) (200 mg, Compound I, 200 mg BID of Form B, Cohort 8, Day 29, read-out: AUClast (Mean))?
**A.** 197 ng·h/mL

**Q.** And the AUC(0-t) (200 mg, Compound I, 200 mg BID of Form B, Cohort 8, Day 29, read-out: AUClast (Median))?
**A.** 205 ng·h/mL

**Q.** And the Cmax (200 mg, Compound I, 200 mg BID of Form B, Cohort 8, Day 29, read-out: Cmax (Mean))?
**A.** 26.3 ng/mL

**Q.** And the Cmax (200 mg, Compound I, 200 mg BID of Form B, Cohort 8, Day 29, read-out: Cmax (Median))?
**A.** 30.5 ng/mL

**Q.** What about the Tmax (200 mg, Compound I, 200 mg BID of Form B, Cohort 8, Day 29, read-out: Tmax (Mean)) of the same molecule?
**A.** 6.67 h

**Q.** And the Tmax (200 mg, Compound I, 200 mg BID of Form B, Cohort 8, Day 29, read-out: Tmax (Median))?
**A.** 4 h

**Q.** And the AUC(0-t) (200 mg, Compound I, 200 mg QD of Form B, Cohort 1, Day 29, read-out: AUClast (Mean))?
**A.** 229 ng·h/mL

**Q.** And the AUC(0-t) (200 mg, Compound I, 200 mg QD of Form B, Cohort 1, Day 29, read-out: AUClast (Median))?
**A.** 227 ng·h/mL

**Q.** And the Cmax (200 mg, Compound I, 200 mg QD of Form B, Cohort 1, Day 29, read-out: Cmax (Mean))?
**A.** 20.4 ng/mL

**Q.** What about the Cmax (200 mg, Compound I, 200 mg QD of Form B, Cohort 1, Day 29, read-out: Cmax (Median)) of the same molecule?
**A.** 21.3 ng/mL

**Q.** What about the Tmax (200 mg, Compound I, 200 mg QD of Form B, Cohort 1, Day 29, read-out: Tmax (Mean)) of the same molecule?
**A.** 4.2 h

**Q.** What about the Tmax (200 mg, Compound I, 200 mg QD of Form B, Cohort 1, Day 29, read-out: Tmax (Median)) of the same molecule?
**A.** 4 h

**Q.** What about the AUC(0-t) (300 mg, Cohort 2, 300 mg QD of Form B, Day 1, upon exclusion of data for patient that vomited immediately after dosing, read-out: AUClast, Mean) of the same molecule?
**A.** 567 ng·h/mL
